Here are results for two compounds from patent US9885088B2, “Rapid phenotypic diagnosis of pathogens and drug resistance using transcriptional expression signatures” (priority 2010, dated 2018).

“Also recorded” adds a separate entry of the source. Bounds are passed on as bounds.

Experiment [1] has as its system M. tuberculosis. The experiment can be described thus: microbe, parasite or virus in culture. Type of experiment: cell-based.
For experiment [2], the system named is M. tuberculosis. Format: cell-based.

For `[H]/N=C(/N)N[C@H]1[C@H](O)[C@@H](O)[C@H](O[C@@H]2O[C@@H](C)[C@](O)(C=O)[C@H]2O[C@@H]2O[C@@H](CO)[C@H](O)[C@@H](O)[C@@H]2NC)[C@@H](N/C(N)=N\[H])[C@@H]1O` [Streptomycin], the “Sensitive (S) or Resistant (R)” value in the experiment with M. tuberculosis [1] is “S and R”.

Consider `NNC(=O)c1ccncc1` [Isoniazid], for which, in the experiment with M. tuberculosis [1], the “Sensitive (S) or Resistant (R)” value was “S and R”; the “increase in minimal inhibitory concentration (MIC)” value is greater than 100 fold; the “increase in the MIC” value worked out at 8 fold; the “minimal inhibitory concentration (MIC)” value is greater than 6.4 mg/L. Further, in the experiment on M. tuberculosis [2], the “expression signature (MSD Z-score)” value is “resistant signature”, the “expression signature induction upon exposure” value is on record as “no expression signature induction; also recorded: clearly shows induction of an expression signature”, the transcriptional response entry was “failed to elicit a transcriptional response” and the “transcriptional response / expression signature” value was “responds in a susceptible manner; also recorded: susceptible signature”.
